In patent US10781177B2, “Pyridine compound and use thereof” (Nippon Soda Co., Ltd., priority 2016, dated 2020):

Columns and labels:
Tetranychus kanzawai = test: Efficacy confirmation test on Tetranychus kanzawai; format: in vivo; settings: 125 ppm sprayed on kidney bean seedlings with female imagoes, 10th day after spraying, read-out: Mortality rate (converted)
Protocol: (§1) An emulsion was prepared in the same manner as in Test Example 1. The emulsion was diluted with water so that the compound of the present invention is to be 125 ppm to obtain a chemical solution.
Kidney bean plants were raised in 3 pots, and inoculated with 10 female imagoes of tetranychus kanzawai on primary leaves. The medicinal solution was sprayed on the kidney bean seedlings. The kidney bean seedlings were placed in a thermostatic chamber at a temperature of 25° C. and a humidity of 65%. On the 10th day after spraying, the survival and death of imagoes of tetranychus kanzawai were determined and the mortality rate was calculated. The test was performed in duplicate.
(§2) The mortality rate was calculated in the same manner as in Test Example 3.

bean aphid = test: Efficacy confirmation test on bean aphid; format: in vivo; settings: 125 ppm sprayed on cowpea seedlings with bean aphid nymphs, 4th day after spraying; read-out: Mortality rate (converted)
Protocol: as §1
Cowpea plants were raised in No. 3 pots and inoculated with bean aphid nymphs on primary leaves. The chemical solution was sprayed on the cowpea seedlings. The cowpea seedlings were placed in a thermostatic chamber at a temperature of 25° C. and a humidity of 60%. On the 4th day after spraying, the life and death of the aphid were determined and the mortality rate was calculated. The test was performed in duplicate.
as §2

Row | SMILES | mortality at 125 ppm (Tetranychus kanzawai) | mortality at 125 ppm (bean aphid) | melting point
1 | COC(=O)Oc1c(C)c(C)nc(C)c1Cc1ccc(Oc2ccc(OC(F)(F)F)cc2)cc1 [1-3, methyl (2,3,6-trimethyl-5-((4-(4-(trifluoromethoxy)phenoxy)phenyl)methyl)-4-pyridyl) carbonate] | 100% | 100% | –
2 | COC(=O)Oc1c(C)c(C)nc(C(C)C)c1Cc1ccc(Oc2ccc(OC(F)(F)F)cc2)cc1 [1-9, (2-isopropyl-5,6-dimethyl-3-((4-(4-(trifluoromethoxy)phenoxy)phenyl)methyl)-4-pyridyl) methyl carbonate] | 100% | 100% | –
3 | COC(=O)Oc1c(C)c(C)nc(C(C)C)c1Cc1ccc(-c2noc(C(F)(F)F)n2)cc1 [1-44, 2-isopropyl-5,6-dimethyl-3-(4-(5-(trifluoromethyl)-1,2,4-oxadiazole-3-yl)benzyl) pyridine-4-yl methyl carbonate] | 100% | 100% | –
4 | Cc1nc(C)c(Cc2cc(-c3ccc(C(F)(F)F)cc3)on2)c(OCc2ccccc2)c1C [7-4] | – | – | 118 to 121 °C
5 | Cc1nc(C)c(Cc2cc(-c3ccc(C(F)(F)F)cc3)on2)c(O)c1C [7-5] | – | – | 200 °C
6 | CC(=O)Oc1c(C)c(C)nc(C)c1Cc1cc(-c2ccc(C(F)(F)F)cc2)on1 [7-6] | – | – | 170 to 173 °C
7 | C=CCOc1c(C)c(C)nc(C)c1CN1C(=O)c2ccccc2C1=O [7-7] | – | – | 145 to 147 °C
8 | Cc1nc(C(C)C)c(Cc2ccc(-c3ccc(OC(F)(F)F)cc3)s2)c(O)c1C [7-8] | – | – | 250 °C
9 | COC(=O)Oc1c(C)c(C)nc(C(C)C)c1Cc1ccc(-c2ccc(OC(F)(F)F)cc2)s1 [7-9] | – | 100% | –
10 | Cc1nc(C(C)C)c(Cc2ccc3ccccc3c2)c(O)c1C [7-11] | – | – | 268 to 270 °C
11 | COC(=O)Oc1c(C)c(C)nc(C(C)C)c1Cc1ccc2ccccc2c1 [7-12] | 100% | – | –
12 | Cc1nc2cc(Cc3c(C(C)C)nc(C)c(C)c3O)ccc2s1 [7-13] | – | – | 284 to 286 °C
13 | Cc1nc(C(C)C)c(Cc2ccc3c(c2)CCC3c2ccc(F)cc2)c(O)c1C (stereo not shown) [7-15] | – | – | 260 to 262 °C
14 | COC(=O)Oc1c(C)c(C)nc(C(C)C)c1Cc1ccc2c(c1)CCC2c1ccc(F)cc1 (stereo not shown) [7-16] | 100% | – | –
15 | Cc1nc(C(C)C)c(Cc2cccc3c2CCC3c2ccc(F)cc2)c(O)c1C (stereo not shown) [7-17] | – | – | 296 to 298 °C
16 | Cc1nc(C(C)C)c(Cc2ccc3sc(C(F)(F)F)nc3c2)c(O)c1C [7-19] | – | – | 273 to 274 °C
17 | COC(=O)Oc1c(C)c(C)nc(C(C)C)c1Cc1ccc2sc(C(F)(F)F)nc2c1 [7-20] | 100% | – | –
18 | Cc1nc(C(C)C)c(Cc2ccc3ncccc3c2)c(O)c1C [7-21] | – | – | 254 to 256 °C
19 | COC(=O)Oc1c(C)c(C)nc(C(C)C)c1Cc1ccc2ncccc2c1 [7-22] | – | – | 127 to 128 °C

Row | SMILES | mortality at 125 ppm (Tetranychus kanzawai) | mortality at 125 ppm (bean aphid) | melting point
20 | Cc1nc(C(C)C)c(Cc2ccc3cc(C(F)(F)F)ccc3c2)c(O)c1C [7-24] | – | – | 268 to 269 °C
21 | COC(=O)Oc1c(C)c(C)nc(C(C)C)c1Cc1ccc2nc(C(F)(F)F)ccc2c1 [7-25] | 100% | – | –
22 | Cc1nc(C(C)C)c(Cc2ccc3ccc(C(F)(F)F)nc3c2)c(O)c1C [7-26] | – | – | 290 to 292 °C
23 | COC(=O)Oc1c(C)c(C)nc(C(C)C)c1Cc1ccc2ccc(C(F)(F)F)nc2c1 [7-27] | – | – | 125 to 126 °C
24 | Cc1nc(C(C)C)c(Cc2ccc3c(c2)C(c2ccc(F)cc2)CC3)c(O)c1C (stereo not shown) [7-28] | – | – | 221 to 224 °C
25 | Cc1nc(C(C)C)c(Cc2cccc3c2oc2ccccc23)c(O)c1C [7-30] | – | – | 300 °C
26 | COC(=O)Oc1c(C)c(C)nc(C(C)C)c1Cc1cccc2c1oc1ccccc12 [7-31] | – | – | 114 to 116 °C
27 | Cc1nc(C(C)C)c(Cc2ccc3sc4ccccc4c3c2)c(O)c1C [7-32] | – | – | 300 °C
28 | COC(=O)Oc1c(C)c(C)nc(C(C)C)c1Cc1ccc2sc3ccccc3c2c1 [7-33] | – | – | 154 to 155 °C
29 | COCCC(=O)NC1CCc2cc(Cc3c(C(C)C)nc(C)c(C)c3O)ccc21 (stereo not shown) [7-34] | – | – | 115 to 120 °C
30 | COc1c(C)c(C)nc(C(C)C)c1Cc1ccc(C2CCC3(CC2)OCCO3)cc1 [7-42] | – | – | 107 to 108 °C
31 | CCO/N=C(/NC(=O)C1CCC(C)CC1)c1ccc(Cc2c(C(C)C)nc(C)c(C)c2O)cc1 (stereo not shown) [7-43] | – | – | 101 to 115 °C
32 | CCO/N=C(/NC(=O)C(F)(F)C(F)(F)F)c1ccc(Cc2c(C(C)C)nc(C)c(C)c2O)cc1 [7-45] | – | – | 210 to 212 °C
33 | CCO/N=C(/NC(=O)C(F)(F)C(F)(F)F)c1ccc(Cc2c(C(C)C)nc(C)c(C)c2OC(=O)OC)cc1 [7-46] | – | – | 98 to 100 °C
34 | COC(=O)Oc1c(C)c(C)nc(C(C)C)c1Cc1ccc(C(=O)NC(=O)C2CCC(C)CC2)cc1 (stereo not shown) [7-47] | – | – | 169 to 171 °C
35 | COc1c(C)c(C)nc(C(C)C)c1Cc1ccc(NC(=O)CC(C)(C)C)cc1 [7-51] | – | – | 154 to 155 °C
36 | Cc1nc(C(C)C)c(Cc2ccc(NC(=O)CC(C)(C)C)cc2)c(O)c1C [7-52] | – | – | 300 °C
37 | COC(=O)Oc1c(C)c(C)cc(C(C)C)c1Cc1ccc(-c2ccc(C(C)=NOC3CCC(C(F)(F)F)CC3)cc2)cc1 (stereo not shown) [7-53] | – | – | 58 to 59 °C
